Measured values as given in patent US20080070939A1, “LOCAL […] COMPOSITIONS CONTAINING DEXTROROTATORY MORPHINAN DERIVATIVES OR PHARMACEUTICALLY ACCEPTABLE SALTS THEREOF” (CHI MEI FOUNDATION HOSPITAL, priority 2006, published 2008).
Counter-ions that a name gives are not always drawn.

Tested on: Male Sprague-Dawley rats
Test: Infiltrative cutaneous anesthesia (inhibition of cutaneous trunci muscle reflex, CTMR) after subcutaneous injection in rats
Assay type: in vivo
Method: Male Sprague-Dawley rats (weighing about 200 to 250 g); for each dose of each drug, n=8.
In brief, hairs on the dorsal surface (about 10×10 cm^2) of the thoracolumbar region of the rat were shaved, and the shaved surface was sterilized with iodine for preparation. To reduce the number of animals used, the back of the rat was further divided into left and right parts. One drug was injected first at the right part. After a washout period of one week, another drug was injected at the left part.
0.6 mL of drug was injected subcutaneously under the dorsal surface of the thoracolumbar region of the rat using a 30-gauge needle attached to a syringe (Becton Drive, Franklin Lakes, USA). The subcutaneous injection would result in a circular elevation (i.e., a wheal) of the skin, about 2 cm in diameter. The elevation was marked with ink within 1 minute after injection.
CTMR refers to the reflex movement of the skin of the back caused by twitching of the lateral thoracispinal muscle in response to local dorsal cutaneous stimulation. Essentially, a von Frey filament (No.15; Somedic Sales AB, Sweden) to which a cut end of an 18-gauge needle was affixed was used to produce a standard nociceptive stimulus (strength: 19 g). Six pinpricks (at a frequency of 0.5-1 Hz) were applied to a single marked wheal during each test. […] For example, absence of any response to all of the 6 pinpricks was defined as a complete nociceptive block (i.e., 100% MPE).
The difference resided in that subcutaneous injections of ED25, ED50 and ED75 of the drugs were performed based on the method described in the section “A. Drug injection” of this example, and evaluation of the infiltrative cutaneous anesthetic effect was performed based on the method described in the section “B. Neurobehavioral evaluation” of this example.

[1] = infiltrative cutaneous anesthesia, rats, 2ED50 when administered independently, ED50 for co-administration, mean ± SEM
[2] = infiltrative cutaneous anesthesia, subcutaneous injection, rats
[3] = subcutaneous dose of ED75, rats, mean±SEM

COc1ccc2c(c1)[C@]13CCCC[C@@H]1[C@H](C2)N(C)CC3 [Dextromethorphan hydrobromide monohydrate]
ED50 (Rattus norvegicus, sc, infiltrative cutaneous anesthesia, subcutaneous injection, rats, read-out: ED50 (95% CI)): 2.05 mg/kg
% MPE [1]: 67 ± 8 % MPE
AUC (% min.) [1]: 2300 ± 440 % min.
Duration [1]: 58 ± 4 min
ED25 [2]: 1.35 mg/kg
ED75 [2]: 3.11 mg/kg
duration of cutaneous anesthesia compared with lidocaine hydrochloride (same effective doses (ED25, ED50 or ED75), rats): longer duration
% MPE of cutaneous nociceptive block [3]: 71±8 % MPE
duration of cutaneous nociceptive block [3]: approximately 50±5 minutes
effect of co-administration with lidocaine hydrochloride on cutaneous nociceptive blockade (subcutaneous, rats, ED50 of each drug): additive effect
